Where two headings read alike, the source gives them in different places.
Molecular target: T1, F508delCFTR (Homo sapiens, UniProt P13569, DEL508-508)
T1 construct: expressed in transfected cells; host or cells: CFBE41o- human lung-derived epithelial cells (CFBE4lo-F508delCFTR-HRP), doxycycline-inducible
Assay: Cell Surface Expression-Horse Radish Peroxidase (CSE-HRP) Assay;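 for Maximum % activity (with co-corrector): co-corrector and positive control are both the same reference corrector at 2 µM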;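 for Maximum % activity (without co-corrector): percent of the 2 µM on-plate positive control corrector response above DMSO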
Assay type: cell-based
Details: for Emax / Maximum % activity (with co-corrector): maximum at any tested concentration, normalized to on-plate positive control; for Emax: read-out: Maximum % activity (without co-corrector); for Maximum % activity (with co-corrector): with co-corrector (2 μM)

[1] = test compound without co-corrector
[2] = test compound without co-corrector, read-out: EC50 (without co-corrector)
[3] = with co-corrector (2 μM of 3-[(2R,4R)-4-({[1-(2,2-difluoro-1,3-benzodioxol-5-yl)cyclopropyl]carbonyl}amino)-7-methoxy-3,4-dihydro-2H-chromen-2-yl]benzoic acid), read-out: EC50 (with co-corrector)

T1 sequence (P13569 with tags, fused parts or gaps DEL508-508): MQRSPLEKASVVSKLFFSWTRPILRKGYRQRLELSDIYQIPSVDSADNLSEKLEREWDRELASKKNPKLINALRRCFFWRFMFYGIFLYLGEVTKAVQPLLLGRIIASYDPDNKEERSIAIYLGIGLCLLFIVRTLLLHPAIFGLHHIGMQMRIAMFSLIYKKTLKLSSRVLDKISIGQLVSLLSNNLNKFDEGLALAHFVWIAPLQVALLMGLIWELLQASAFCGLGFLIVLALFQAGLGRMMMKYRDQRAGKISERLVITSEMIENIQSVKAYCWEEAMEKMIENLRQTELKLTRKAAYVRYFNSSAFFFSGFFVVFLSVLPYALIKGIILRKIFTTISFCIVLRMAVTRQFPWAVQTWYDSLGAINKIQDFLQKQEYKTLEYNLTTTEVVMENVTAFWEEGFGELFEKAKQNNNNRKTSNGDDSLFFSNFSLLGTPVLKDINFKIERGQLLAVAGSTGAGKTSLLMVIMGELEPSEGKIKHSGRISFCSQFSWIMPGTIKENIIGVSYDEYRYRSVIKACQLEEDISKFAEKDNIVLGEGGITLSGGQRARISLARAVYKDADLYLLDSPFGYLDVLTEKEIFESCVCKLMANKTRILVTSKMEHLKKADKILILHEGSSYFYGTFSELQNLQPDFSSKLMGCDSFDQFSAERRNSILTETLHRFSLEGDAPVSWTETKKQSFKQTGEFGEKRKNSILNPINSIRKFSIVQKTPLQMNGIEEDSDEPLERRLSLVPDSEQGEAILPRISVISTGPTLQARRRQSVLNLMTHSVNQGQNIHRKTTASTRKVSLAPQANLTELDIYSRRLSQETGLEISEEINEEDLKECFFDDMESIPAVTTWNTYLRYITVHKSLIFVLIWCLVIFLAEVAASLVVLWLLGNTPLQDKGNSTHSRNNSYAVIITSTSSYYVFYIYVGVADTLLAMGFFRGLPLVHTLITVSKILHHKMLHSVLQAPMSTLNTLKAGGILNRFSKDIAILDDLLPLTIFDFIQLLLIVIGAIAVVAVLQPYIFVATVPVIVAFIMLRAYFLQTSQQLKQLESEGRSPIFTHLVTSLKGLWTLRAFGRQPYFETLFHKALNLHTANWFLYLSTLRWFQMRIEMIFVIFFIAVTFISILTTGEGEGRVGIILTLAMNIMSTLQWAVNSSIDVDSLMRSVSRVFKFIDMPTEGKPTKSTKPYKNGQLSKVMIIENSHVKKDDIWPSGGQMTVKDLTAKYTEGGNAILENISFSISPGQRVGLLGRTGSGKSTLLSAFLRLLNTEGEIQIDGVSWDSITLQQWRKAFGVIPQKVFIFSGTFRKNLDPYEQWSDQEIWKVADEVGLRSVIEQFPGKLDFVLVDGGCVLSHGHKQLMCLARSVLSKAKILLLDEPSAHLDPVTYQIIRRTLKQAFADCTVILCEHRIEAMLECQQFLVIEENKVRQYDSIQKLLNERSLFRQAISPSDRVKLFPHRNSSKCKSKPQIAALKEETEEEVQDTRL

| SMILES | Emax [1] | EC50 [2] | EC50 [3] | Maximum % activity (with co-corrector) |
| --- | --- | --- | --- | --- |
| CC(C)(C)[C@H]1[C@H](NCc2cc(Br)ccc2OC(F)F)[C@H](c2ccccc2)N(C(=O)C2CCCCC2)[C@@H]1C(=O)O [III-131] | < 100% | < 1 µM | 1 to 10 µM | +++ (≥350) |
| CC(C)(C)[C@H]1[C@H](NCc2ccc3c(c2)OC(F)(F)O3)[C@H](c2ccccc2)N(C(=O)C2CCCCC2)[C@@H]1C(=O)O [III-132] | < 100% | > 10 µM | 1 to 10 µM | ++ (≥150 and <350) |
| COc1cc(CN[C@H]2[C@H](C(C)(C)C)[C@@H](C(=O)O)N(C(=O)C3CCCCC3)[C@H]2c2ccccc2)cc(OC)c1 [III-133] | < 100% | > 10 µM | 1 to 10 µM | ++ (≥150 and <350) |
| Cc1ccc(CN[C@H]2[C@H](C(C)(C)C)[C@@H](C(=O)O)N(C(=O)C3CCCCC3)[C@H]2c2ccccc2)cc1C [III-134] | < 100% | 1 to 10 µM | 1 to 10 µM | ++ (≥150 and <350) |
| CC(C)(C)[C@H]1[C@H](NCc2ccc3occc3c2)[C@H](c2ccccc2)N(C(=O)C2CCCCC2)[C@@H]1C(=O)O [III-135] | < 100% | > 10 µM | 1 to 10 µM | ++ (≥150 and <350) |
| CC(C)(C)[C@H]1[C@H](NCc2ccc(C(F)(F)F)cc2F)[C@H](c2ccccc2)N(C(=O)C2CCCCC2)[C@@H]1C(=O)O [III-136] | < 100% | > 10 µM | 1 to 10 µM | ++ (≥150 and <350) |
| COc1ccc(C(F)(F)F)cc1CN[C@H]1[C@H](C(C)(C)C)[C@@H](C(=O)O)N(C(=O)C2(S(C)(=O)=O)CC2)[C@H]1c1ccccc1 [III-137] | < 100% | 1 to 10 µM | 1 to 10 µM | ++ (≥150 and <350) |
| CC(C)(C)[C@H]1[C@H](NCc2ccc(C(F)(F)F)cc2)[C@H](c2ccccc2)N(C(=O)C2CCCCC2)[C@@H]1C(=O)O [III-138] | < 100% | > 10 µM | 1 to 10 µM | ++ (≥150 and <350) |
| CC(C)(C)[C@H]1[C@H](NCc2ccccc2C(F)F)[C@H](c2ccccc2)N(C(=O)C2CCCCC2)[C@@H]1C(=O)O [III-139] | < 100% | < 1 µM | < 1 µM | ++ (≥150 and <350) |
| CC(C)(C)[C@H]1[C@H](NCc2cc(Cl)c3c(c2)OCO3)[C@H](c2ccccc2)N(C(=O)C2CCCCC2)[C@@H]1C(=O)O [III-140] | < 100% | > 10 µM | 1 to 10 µM | ++ (≥150 and <350) |
| Cc1cc(CN[C@H]2[C@H](C(C)(C)C)[C@@H](C(=O)O)N(C(=O)C3CCCCC3)[C@H]2c2ccccc2)cc(C)c1OC(F)F [III-141] | < 100% | 1 to 10 µM | 1 to 10 µM | ++ (≥150 and <350) |
| CC(C)(C)[C@H]1[C@H](NCc2cc3c(cc2Cl)OCO3)[C@H](c2ccccc2)N(C(=O)C2CCCCC2)[C@@H]1C(=O)O [III-142] | < 100% | 1 to 10 µM | 1 to 10 µM | ++ (≥150 and <350) |
| CC(C)(C)[C@H]1[C@H](Nc2nc(Cl)c(F)cc2C#N)[C@H](c2ccccc2)N(C(=O)C2CCCCC2)[C@@H]1C(=O)O [III-145] | < 100% | 1 to 10 µM | 1 to 10 µM | ++ (≥150 and <350) |
| CC(C)(C)[C@H]1[C@H](Nc2cc(C#N)cc(Cl)n2)[C@H](c2ccccc2)N(C(=O)C2CCCCC2)[C@@H]1C(=O)O [III-146] | < 100% | > 10 µM | 1 to 10 µM | ++ (≥150 and <350) |
| CC(C)(O)c1cc(Cl)nc(N[C@H]2[C@H](C(C)(C)C)[C@@H](C(=O)O)N(C(=O)C3CCCCC3)[C@H]2c2ccccc2)c1 [III-147] | < 100% | > 10 µM | 1 to 10 µM | ++ (≥150 and <350) |
| Cc1cc(C)c(C#N)c(N[C@H]2[C@H](C(C)(C)C)[C@@H](C(=O)O)N(C(=O)C3CCCCC3)[C@H]2c2ccccc2)n1 [III-148] | < 100% | 1 to 10 µM | 1 to 10 µM | +++ (≥350) |
| CCc1cc2ccc(Cl)cc2nc1N[C@H]1[C@H](C(C)(C)C)[C@@H](C(=O)O)N(C(=O)C2CCCCC2)[C@H]1c1ccccc1 [III-149] | 100 to 200% | 1 to 10 µM | 1 to 10 µM | +++ (≥350) |
| CC(C)(C)[C@H]1[C@H](Nc2nc(Nc3ccccc3)ccc2C#N)[C@H](c2ccccc2)N(C(=O)C2CCCCC2)[C@@H]1C(=O)O [III-150] | < 100% | > 10 µM | > 10 µM | + (<150) |

| SMILES | Emax [1] | EC50 [2] | EC50 [3] | Maximum % activity (with co-corrector) |
| --- | --- | --- | --- | --- |
| COc1ccc2c(C)cc(N[C@H]3[C@H](C(C)(C)C)[C@@H](C(=O)O)N(C(=O)C4CCCCC4)[C@H]3c3ccccc3)nc2c1 [III-151] | < 100% | 1 to 10 µM | 1 to 10 µM | ++ (≥150 and <350) |
| CCOc1cc(N[C@H]2[C@H](C(C)(C)C)[C@@H](C(=O)O)N(C(=O)C3CCCCC3)[C@H]2c2ccccc2)nc2ccccc12 [III-152] | < 100% | > 10 µM | 1 to 10 µM | ++ (≥150 and <350) |
| CC(C)(C)[C@H]1[C@H](Nc2ccc(Cn3ccccc3=O)cn2)[C@H](c2ccccc2)N(C(=O)C2CCCCC2)[C@@H]1C(=O)O [III-153] | < 100% | > 10 µM | > 10 µM | + (<150) |
| COc1ccc2cc(C)nc(N[C@H]3[C@H](C(C)(C)C)[C@@H](C(=O)O)N(C(=O)C4CCCCC4)[C@H]3c3ccccc3)c2c1 [III-154] | < 100% | 1 to 10 µM | 1 to 10 µM | ++ (≥150 and <350) |
| CC(C)(C)NC(=O)c1ccc(N[C@H]2[C@H](C(C)(C)C)[C@@H](C(=O)O)N(C(=O)C3CCCCC3)[C@H]2c2ccccc2)nc1 [III-155] | < 100% | > 10 µM | 1 to 10 µM | + (<150) |
| CC(C)(C)[C@H]1[C@H](Nc2cc3ccccc3cn2)[C@H](c2ccccc2)N(C(=O)C2CCCCC2)[C@@H]1C(=O)O [III-156] | < 100% | < 1 µM | 1 to 10 µM | ++ (≥150 and <350) |
| Cn1c(=O)c2c(N[C@H]3[C@H](C(C)(C)C)[C@@H](C(=O)O)N(C(=O)C4CCCCC4)[C@H]3c3ccccc3)nccc2n(C)c1=O [III-157] | < 100% | > 10 µM | 1 to 10 µM | ++ (≥150 and <350) |
| CC(C)(C)[C@H]1[C@H](Nc2ccc(C3(C#N)CC3)cn2)[C@H](c2ccccc2)N(C(=O)C2CCCCC2)[C@@H]1C(=O)O [III-159] | < 100% | > 10 µM | 1 to 10 µM | ++ (≥150 and <350) |
| CC(C)(C)[C@H]1[C@H](Nc2ncccc2OCc2ccccc2)[C@H](c2ccccc2)N(C(=O)C2CCCCC2)[C@@H]1C(=O)O [III-160] | < 100% | 1 to 10 µM | 1 to 10 µM | ++ (≥150 and <350) |
| CC(C)(C)NC(=O)c1cncc(N[C@H]2[C@H](C(C)(C)C)[C@@H](C(=O)O)N(C(=O)C3CCCCC3)[C@H]2c2ccccc2)c1 [III-161] | < 100% | > 10 µM | > 10 µM | + (<150) |
| CC(C)(C)[C@H]1[C@H](Nc2cncc3ccccc23)[C@H](c2ccccc2)N(C(=O)C2CCCCC2)[C@@H]1C(=O)O [III-162] | < 100% | 1 to 10 µM | 1 to 10 µM | ++ (≥150 and <350) |
| COc1cc(C(F)(F)F)ccc1CN[C@H]1[C@H](C(C)(C)C)[C@@H](C(=O)O)N(C(=O)c2cccnc2)[C@H]1c1ccccc1 [III-163] | < 100% | 1 to 10 µM | 1 to 10 µM | ++ (≥150 and <350) |
| COc1ccc(C(F)(F)F)cc1CN[C@H]1[C@H](C(C)(C)C)[C@@H](C(=O)O)N(C(=O)C2CCCCC2)[C@H]1c1ncccc1Cl [III-164] | < 100% | > 10 µM | 1 to 10 µM | ++ (≥150 and <350) |
| COc1ncc(C(F)(F)F)cc1CN[C@@H]1[C@@H](C(C)(C)C)[C@H](C(=O)O)N(C(=O)[C@@H]2CCCCO2)[C@@H]1c1ccccc1 [III-165] | < 100% | 1 to 10 µM | 1 to 10 µM | ++ (≥150 and <350) |
| COc1ccc(C(C)(C)C)cc1CN[C@H]1[C@H](C(C)(C)C)[C@@H](C(=O)O)N(C(=O)Cc2ccc(Cl)cc2)[C@H]1c1ccccc1 [III-166] | 100 to 200% | 1 to 10 µM | < 1 µM | +++ (≥350) |
| COc1ccc(C(C)(C)C)cc1CN[C@H]1[C@H](C(C)(C)C)[C@@H](C(=O)O)N(C(=O)CC2CCCCC2)[C@H]1c1ccccc1 [III-167] | > 200% | 1 to 10 µM | < 1 µM | +++ (≥350) |
| CCC(C)c1ccc(OC)c(CN[C@H]2[C@H](C(C)(C)C)[C@@H](C(=O)O)N(C(=O)C3CCCCC3)[C@H]2c2ccccc2)c1 (stereo partly drawn) [III-168] | > 200% | < 1 µM | < 1 µM | +++ (≥350) |
| COc1ccc(CC2CCCCC2)cc1CN[C@H]1[C@H](C(C)(C)C)[C@@H](C(=O)O)N(C(=O)C2CCCCC2)[C@H]1c1ccccc1 [III-169] | > 200% | < 1 µM | < 1 µM | +++ (≥350) |
